Experimental findings from ChEMBL document CHEMBL5579809, “Exploration of bromodomain ligand-linker conjugation sites for efficient CBP/p300 heterobifunctional degrader activity” (Bioorg Med Chem Lett, 2024) are described below.

Active and inactive are the calls of the source. No cut-off for these calls is given here.

A word on the Emax: it is the maximal effect, on the per cent scale that the assay sets.

Protein cereblon/Bromodomain-containing protein 4 (Homo sapiens), sequence (Q96SW2 whole entry, looked up, other chains not shown): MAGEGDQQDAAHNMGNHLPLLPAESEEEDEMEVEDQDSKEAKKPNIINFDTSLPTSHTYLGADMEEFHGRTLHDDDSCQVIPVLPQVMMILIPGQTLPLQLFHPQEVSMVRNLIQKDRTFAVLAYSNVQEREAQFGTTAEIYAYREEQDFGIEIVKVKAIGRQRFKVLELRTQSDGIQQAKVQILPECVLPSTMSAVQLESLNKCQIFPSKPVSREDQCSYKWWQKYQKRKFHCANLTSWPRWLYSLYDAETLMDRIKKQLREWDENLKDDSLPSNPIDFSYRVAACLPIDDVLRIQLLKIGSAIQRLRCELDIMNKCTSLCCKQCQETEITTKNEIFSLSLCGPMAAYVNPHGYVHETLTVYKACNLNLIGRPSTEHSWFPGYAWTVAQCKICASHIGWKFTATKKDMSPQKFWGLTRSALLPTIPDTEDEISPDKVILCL

The target of the first experiment is T1, Protein cereblon/CREB-binding protein (Homo sapiens) (UniProt Q92793+Q96SW2). The experiment can be described thus: PROTAC activity at CRBN/HiBiT-tagged CBP in human HAP1 cells assessed as total cumulative degradation by measuring AUC at 100 nM measured over 24 hrs by luminescence based analysis. It counts as cell-based. (In general: The HiBiT peptide binds its large partner to form an active luciferase.)
T1 sequence (Q92793 2-2442 limits assumed): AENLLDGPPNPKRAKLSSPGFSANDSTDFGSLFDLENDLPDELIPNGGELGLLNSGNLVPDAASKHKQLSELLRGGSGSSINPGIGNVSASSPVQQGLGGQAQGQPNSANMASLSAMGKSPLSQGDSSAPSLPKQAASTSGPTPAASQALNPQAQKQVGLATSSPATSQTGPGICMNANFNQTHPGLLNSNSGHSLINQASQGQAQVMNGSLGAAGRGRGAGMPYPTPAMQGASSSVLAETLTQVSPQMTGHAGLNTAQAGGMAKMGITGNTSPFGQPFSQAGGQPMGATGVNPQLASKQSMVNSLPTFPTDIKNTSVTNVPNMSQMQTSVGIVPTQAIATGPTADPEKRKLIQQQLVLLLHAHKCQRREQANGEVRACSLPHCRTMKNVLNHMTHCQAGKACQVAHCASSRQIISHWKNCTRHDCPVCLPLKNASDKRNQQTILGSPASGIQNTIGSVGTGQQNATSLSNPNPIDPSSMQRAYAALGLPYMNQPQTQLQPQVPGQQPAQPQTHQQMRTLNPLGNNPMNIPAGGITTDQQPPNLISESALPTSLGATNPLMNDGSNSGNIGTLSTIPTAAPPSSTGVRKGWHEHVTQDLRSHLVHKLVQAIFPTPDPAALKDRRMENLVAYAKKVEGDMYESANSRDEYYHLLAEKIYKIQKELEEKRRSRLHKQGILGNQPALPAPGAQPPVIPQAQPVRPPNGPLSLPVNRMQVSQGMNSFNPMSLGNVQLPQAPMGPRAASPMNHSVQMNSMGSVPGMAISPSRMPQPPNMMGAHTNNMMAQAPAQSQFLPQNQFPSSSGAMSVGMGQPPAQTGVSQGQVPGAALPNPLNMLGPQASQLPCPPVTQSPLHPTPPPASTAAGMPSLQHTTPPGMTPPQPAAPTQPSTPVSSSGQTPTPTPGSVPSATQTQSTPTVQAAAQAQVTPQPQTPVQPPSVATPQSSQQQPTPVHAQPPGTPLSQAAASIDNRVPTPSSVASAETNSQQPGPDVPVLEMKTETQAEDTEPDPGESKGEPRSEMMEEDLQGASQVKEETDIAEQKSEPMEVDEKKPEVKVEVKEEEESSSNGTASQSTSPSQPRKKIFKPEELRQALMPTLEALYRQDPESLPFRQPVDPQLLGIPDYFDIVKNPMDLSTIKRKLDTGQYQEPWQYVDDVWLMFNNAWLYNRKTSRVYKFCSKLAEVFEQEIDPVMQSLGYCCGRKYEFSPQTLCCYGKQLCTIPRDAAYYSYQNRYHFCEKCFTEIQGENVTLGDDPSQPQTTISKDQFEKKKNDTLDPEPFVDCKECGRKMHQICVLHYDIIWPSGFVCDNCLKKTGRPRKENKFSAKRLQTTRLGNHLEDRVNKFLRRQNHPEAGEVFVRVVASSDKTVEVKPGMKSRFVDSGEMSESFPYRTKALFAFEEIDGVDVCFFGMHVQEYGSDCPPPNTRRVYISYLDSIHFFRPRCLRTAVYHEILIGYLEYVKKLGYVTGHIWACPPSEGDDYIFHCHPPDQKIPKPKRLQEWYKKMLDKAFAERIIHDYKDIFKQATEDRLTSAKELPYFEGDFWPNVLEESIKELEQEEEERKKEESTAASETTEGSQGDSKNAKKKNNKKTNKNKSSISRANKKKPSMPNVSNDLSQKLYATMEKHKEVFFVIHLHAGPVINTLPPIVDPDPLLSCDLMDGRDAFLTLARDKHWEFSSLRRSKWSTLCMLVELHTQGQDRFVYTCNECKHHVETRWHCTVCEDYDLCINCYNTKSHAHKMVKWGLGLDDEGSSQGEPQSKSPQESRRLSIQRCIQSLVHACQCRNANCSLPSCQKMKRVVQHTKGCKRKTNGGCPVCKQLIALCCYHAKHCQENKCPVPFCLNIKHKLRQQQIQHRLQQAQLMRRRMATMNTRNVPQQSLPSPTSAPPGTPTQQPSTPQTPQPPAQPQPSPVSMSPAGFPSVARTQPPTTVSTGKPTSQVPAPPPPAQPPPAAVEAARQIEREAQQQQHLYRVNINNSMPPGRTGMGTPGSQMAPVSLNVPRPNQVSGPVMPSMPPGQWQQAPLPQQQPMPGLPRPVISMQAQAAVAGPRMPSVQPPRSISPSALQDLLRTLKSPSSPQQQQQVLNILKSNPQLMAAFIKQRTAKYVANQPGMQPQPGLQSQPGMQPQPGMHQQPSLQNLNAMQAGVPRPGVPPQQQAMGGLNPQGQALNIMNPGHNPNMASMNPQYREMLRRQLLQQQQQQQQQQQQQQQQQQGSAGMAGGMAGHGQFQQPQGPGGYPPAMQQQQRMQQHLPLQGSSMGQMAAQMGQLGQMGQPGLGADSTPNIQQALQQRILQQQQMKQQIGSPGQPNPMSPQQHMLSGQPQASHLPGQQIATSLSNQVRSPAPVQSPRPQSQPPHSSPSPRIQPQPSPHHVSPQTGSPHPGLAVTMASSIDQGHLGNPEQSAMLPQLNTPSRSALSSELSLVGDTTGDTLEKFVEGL
T1 sequence (Q96SW2 whole entry partner): as the sequence (Q96SW2 whole entry, looked up, other chains not shown) above
With `CNC(=O)N1CCc2c(c(N3CCN(C(=O)NCCOCCNc4ccc5c(c4)C(=O)N(C4CCC(=O)NC4=O)C5=O)c4cc(-c5cnn(C)c5)c(C(F)(F)F)cc43)nn2C2CCOCC2)C1` (configuration not stated), the AUC worked out at 23.6.

The next experiment deals with T1, Protein cereblon/CREB-binding protein (Homo sapiens). The experiment can be described thus: PROTAC activity at CRBN/HiBiT-tagged CBP in human HAP1 cells assessed as total cumulative degradation by measuring AUC at 1 nM measured over 24 hrs by luminescence based analysis. It counts as cell-based.
Consider `CNC(=O)N1CCc2c(c(N3CCN(C(=O)NCCOCCNc4ccc5c(c4)C(=O)N(C4CCC(=O)NC4=O)C5=O)c4cc(-c5cnn(C)c5)c(C(F)(F)F)cc43)nn2C2CCOCC2)C1` (configuration not stated), for which the AUC amounted to 23.9.

Another experiment has the same target. The experiment can be described thus: PROTAC activity at CRBN/HiBiT-tagged CBP in human HAP1 cells assessed as total cumulative degradation by measuring AUC at 0.01 nM measured over 24 hrs by luminescence based analysis. It counts as cell-based.
Take `CNC(=O)N1CCc2c(c(N3CCN(C(=O)NCCOCCNc4ccc5c(c4)C(=O)N(C4CCC(=O)NC4=O)C5=O)c4cc(-c5cnn(C)c5)c(C(F)(F)F)cc43)nn2C2CCOCC2)C1` (configuration not stated): the AUC came out at 23.4.

Another experiment addresses T2, Protein cereblon/Histone acetyltransferase p300 (Homo sapiens) (UniProt Q09472+Q96SW2). Kind of experiment: PROTAC activity at CRBN/HiBiT-tagged p300 in human HAP1 cells assessed as total cumulative degradation by measuring AUC at 0.01 nM measured over 24 hrs by luminescence based analysis. It counts as cell-based.
Consider `CNC(=O)N1CCc2c(c(N3CCN(C(=O)NCCOCCNc4ccc5c(c4)C(=O)N(C4CCC(=O)NC4=O)C5=O)c4cc(-c5cnn(C)c5)c(C(F)(F)F)cc43)nn2C2CCOCC2)C1` (configuration not stated), for which the AUC was 27.5.

Another experiment addresses T2, Protein cereblon/Histone acetyltransferase p300 (Homo sapiens). Kind of experiment: PROTAC activity at CRBN/HiBiT-tagged p300 in human HAP1 cells assessed as induction of p300 degradation by measuring maximal efficacy at 1000 nM measured over 24 hrs by luminescence based analysis relative to control. It counts as cell-based.
`CNC(=O)N1CCc2c(c(N3CCN(C(=O)NCCOCCNc4ccc5c(c4)C(=O)N(C4CCC(=O)NC4=O)C5=O)c4cc(-c5cnn(C)c5)c(C(F)(F)F)cc43)nn2C2CCOCC2)C1` (configuration not stated): the Emax is 20%.

The target of a further experiment is T1, Protein cereblon/CREB-binding protein (Homo sapiens). The experiment can be described thus: PROTAC activity at CRBN/HiBiT-tagged CBP in human HAP1 cells assessed as total cumulative degradation by measuring AUC at 1000 nM measured over 24 hrs by luminescence based analysis. It counts as cell-based.
Take `CNC(=O)N1CCc2c(c(N3CCN(C(=O)NCCOCCNc4ccc5c(c4)C(=O)N(C4CCC(=O)NC4=O)C5=O)c4cc(-c5cnn(C)c5)c(C(F)(F)F)cc43)nn2C2CCOCC2)C1` (configuration not stated): the AUC was found to be 21.4.

The target in the next experiment is T2, Protein cereblon/Histone acetyltransferase p300 (Homo sapiens). The experiment can be described thus: PROTAC activity at CRBN/HiBiT-tagged p300 in human HAP1 cells assessed as total cumulative degradation by measuring AUC at 100 nM measured over 24 hrs by luminescence based analysis. It counts as cell-based.
As for `CNC(=O)N1CCc2c(c(N3CCN(C(=O)NCCOCCNc4ccc5c(c4)C(=O)N(C4CCC(=O)NC4=O)C5=O)c4cc(-c5cnn(C)c5)c(C(F)(F)F)cc43)nn2C2CCOCC2)C1` (configuration not stated), the AUC was 26.2.

The next experiment has the same target. The experiment can be described thus: PROTAC activity at CRBN/HiBiT-tagged p300 in human HAP1 cells assessed as total cumulative degradation by measuring AUC at 1000 nM measured over 24 hrs by luminescence based analysis. It counts as cell-based.
As to `CNC(=O)N1CCc2c(c(N3CCN(C(=O)NCCOCCNc4ccc5c(c4)C(=O)N(C4CCC(=O)NC4=O)C5=O)c4cc(-c5cnn(C)c5)c(C(F)(F)F)cc43)nn2C2CCOCC2)C1` (configuration not stated), the AUC came to 22.3.

Another experiment deals with T1, Protein cereblon/CREB-binding protein (Homo sapiens). The experiment can be described thus: PROTAC activity at CRBN/HiBiT-tagged CBP in human HAP1 cells assessed as induction of CBP degradation by measuring degradation rate at 1000 nM measured over 24 hrs by luminescence based analysis. It counts as cell-based.
Turning to `CNC(=O)N1CCc2c(c(N3CCN(C(=O)NCCOCCNc4ccc5c(c4)C(=O)N(C4CCC(=O)NC4=O)C5=O)c4cc(-c5cnn(C)c5)c(C(F)(F)F)cc43)nn2C2CCOCC2)C1` (configuration not stated), the Activity was determined as 0.036 h⁻¹.

The next experiment concerns the target T2, Protein cereblon/Histone acetyltransferase p300 (Homo sapiens). The experiment can be described thus: PROTAC activity at CRBN/HiBiT-tagged p300 in human HAP1 cells assessed as total cumulative degradation by measuring AUC at 0.1 nM measured over 24 hrs by luminescence based analysis. It counts as cell-based.
`CNC(=O)N1CCc2c(c(N3CCN(C(=O)NCCOCCNc4ccc5c(c4)C(=O)N(C4CCC(=O)NC4=O)C5=O)c4cc(-c5cnn(C)c5)c(C(F)(F)F)cc43)nn2C2CCOCC2)C1` (configuration not stated): the AUC came to 27.5.

Another experiment deals with T1, Protein cereblon/CREB-binding protein (Homo sapiens). The experiment can be described thus: PROTAC activity at CRBN/HiBiT-tagged CBP in human HAP1 cells assessed as total cumulative degradation by measuring AUC at 0.1 nM measured over 24 hrs by luminescence based analysis. It counts as cell-based.
As to `CNC(=O)N1CCc2c(c(N3CCN(C(=O)NCCOCCNc4ccc5c(c4)C(=O)N(C4CCC(=O)NC4=O)C5=O)c4cc(-c5cnn(C)c5)c(C(F)(F)F)cc43)nn2C2CCOCC2)C1` (configuration not stated), the AUC came to 25.

Another experiment has as its target T2, Protein cereblon/Histone acetyltransferase p300 (Homo sapiens). Kind of experiment: PROTAC activity at CRBN/HiBiT-tagged p300 in human HAP1 cells assessed as total cumulative degradation by measuring AUC at 10 nM measured over 24 hrs by luminescence based analysis. It counts as cell-based.
Consider `CNC(=O)N1CCc2c(c(N3CCN(C(=O)NCCOCCNc4ccc5c(c4)C(=O)N(C4CCC(=O)NC4=O)C5=O)c4cc(-c5cnn(C)c5)c(C(F)(F)F)cc43)nn2C2CCOCC2)C1` (configuration not stated), for which the AUC worked out at 27.

For another experiment the target is unchanged. The experiment can be described thus: PROTAC activity at CRBN/HiBiT-tagged p300 in human HAP1 cells assessed as induction of p300 degradation by measuring degradation rate at 1000 nM measured over 24 hrs by luminescence based analysis. It counts as cell-based.
Regarding `CNC(=O)N1CCc2c(c(N3CCN(C(=O)NCCOCCNc4ccc5c(c4)C(=O)N(C4CCC(=O)NC4=O)C5=O)c4cc(-c5cnn(C)c5)c(C(F)(F)F)cc43)nn2C2CCOCC2)C1` (configuration not stated), the Activity was found to be 0.02 h⁻¹.

Another experiment concerns the target Protein cereblon/Bromodomain-containing protein 4 (Homo sapiens) (UniProt O60885+Q96SW2). The experiment can be described thus: PROTAC activity at CRBN/HiBiT-tagged BRD4 in human HAP1 cells assessed as induction of BRD4 degradation measured over 24 hrs by luminescence based analysis. It counts as cell-based.
As to `CNC(=O)N1CCc2c(c(N3CCN(C(=O)NCCOCCNc4ccc5c(c4)C(=O)N(C4CCC(=O)NC4=O)C5=O)c4cc(-c5cnn(C)c5)c(C(F)(F)F)cc43)nn2C2CCOCC2)C1` (configuration not stated), the outcome was inactive.

Another experiment has as its target T1, Protein cereblon/CREB-binding protein (Homo sapiens). The experiment can be described thus: PROTAC activity at CRBN/HiBiT-tagged CBP in human HAP1 cells assessed as total cumulative degradation by measuring AUC at 10 nM measured over 24 hrs by luminescence based analysis. It counts as cell-based.
Take `CNC(=O)N1CCc2c(c(N3CCN(C(=O)NCCOCCNc4ccc5c(c4)C(=O)N(C4CCC(=O)NC4=O)C5=O)c4cc(-c5cnn(C)c5)c(C(F)(F)F)cc43)nn2C2CCOCC2)C1` (configuration not stated): the AUC amounted to 24.9.

The target of the next experiment is T2, Protein cereblon/Histone acetyltransferase p300 (Homo sapiens). Kind of experiment: PROTAC activity at CRBN/HiBiT-tagged p300 in human HAP1 cells assessed as total cumulative degradation by measuring AUC at 1 nM measured over 24 hrs by luminescence based analysis. It counts as cell-based.
Take `CNC(=O)N1CCc2c(c(N3CCN(C(=O)NCCOCCNc4ccc5c(c4)C(=O)N(C4CCC(=O)NC4=O)C5=O)c4cc(-c5cnn(C)c5)c(C(F)(F)F)cc43)nn2C2CCOCC2)C1` (configuration not stated): the AUC was 26.9.

The target in a further experiment is T1, Protein cereblon/CREB-binding protein (Homo sapiens). Kind of experiment: PROTAC activity at CRBN/HiBiT-tagged CBP in human HAP1 cells assessed as induction of CBP degradation by measuring maximal efficacy at 1000 nM measured over 24 hrs by luminescence based analysis relative to control. It counts as cell-based.
As to `CNC(=O)N1CCc2c(c(N3CCN(C(=O)NCCOCCNc4ccc5c(c4)C(=O)N(C4CCC(=O)NC4=O)C5=O)c4cc(-c5cnn(C)c5)c(C(F)(F)F)cc43)nn2C2CCOCC2)C1` (configuration not stated), the Emax is 26%.
